Data: patent publication US5449694A, “(-)-ritodrine, therapeutic compositions and use, and method of preparation” (priority 1992, dated 1995)
Where two headings read alike, the source gives them in different places.

Key:
[1] = test system: guinea pig; assay: Effect on vascular permeability (Evans blue dye infiltration, skin); type: in vivo, Hartley guinea pig
Protocol: Effect on Vascular Permeability
Three Hartley guinea pigs were employed. (±)-Ritodrine hydrochloride, (+)-ritodrine hydrochloride or (-) -ritodrine hydrochloride were administered intracutaneously at a dose of 10^-2 -10^-5 g/ml into the shaved rear part of the guinea pigs. Immediately after the administration, 1 ml of a 1% Evans blue solution was administered intravenously. After 30 minutes, the animals were slaughtered by exsanguination under anesthetization with excessive amount of pentobarbital sodium. The skin was peeled to observe from the internal side of the skin the extent of dye infiltration at the site where the test material was administered. The area with dye having a size ([longer diameter+shorter diameter]/2) of 5 mm or more was judged positive.

[2] = test system: uterus in situ; assay: Effect on uterine movement in situ (oxytocin-facilitated, pregnant rat); type: in vivo, pregnant Wistar rat; conditions: for ED50 / minimal effective dose: Rattus norvegicus, iv; for ED50: read-out: concentration (dose) required for suppressing 50% of the increase of the uterus due to oxytocin; for minimal effective dose: read-out: dose at which suppressing effect on uterine movement was exhibited; for concentration dependence of suppressing effect: i.v., 0.05-15 mg/kg
Description: Effect on Uterine Movement in Situ
After a pregnant Wistar rat was anesthesized with urethane-α-chloralose, the abdominal part was incised along the median line and a polyethylene cylinder was inserted. The center of the uterine horn was suspended with a suture, and the uterine movement was isotonically recorded via an isotonic transducer. When the spontaneous movement of the uterus was stabilized, 50 mU/kg/min of oxytocin was infused intravenously to facilitate the movement. When the response due to oxytocin became constant, either (±)-ritodrine hydrochloride, (+)-ritodrine hydrochloride or (-)-ritodrine hydrochloride (0.05-15 mg/kg) was administered intravenously to observe the variation of tension and frequency and amplitude of the spontaneous movement. The suppressing effect of the uterine movement on respective parameters was expressed as the intensity of the activity by either (±)-ritodrine hydrochloride, (+)-ritodrine hydrochloride or (-)-ritodrine hydrochloride based on the state facilitated by oxytocin as 100%. The variations of the tension, and the frequency and amplitude of the spontaneous movement are shown in Tables 2, 3 and 4, respectively. […] In either parameter, the (-)-isomer was effective in a concentration of 1/2-1/3 to the (±)-isomer. The (+)-isomer was effective at a dose of 1.5 mg/kg or more.

[3] = test system: guinea pig tracheal smooth muscle; assay: Effect on an isolated preparation of tracheal muscle in guinea pig (relaxation); set-up: species or system Hartley guinea pig; conditions: for relaxation response of tracheal muscle: 10^-8 -10-4M; for IC50: Cavia porcellus, read-out: concentration required for relaxing 50% of the maximum relaxation effect (IC50); for sequence of intensities of relaxation activity: decreasing sequence
Protocol: (§1) Effect on an Isolated Preparation of Tracheal Muscle in Guinea Pig
After Hartley guinea pigs having body weight of 430-510 g, were anesthesized with ether, tracheae were excised to make chain preparation according to the method of Akcasu (A. Akcasu, Arch. Int. Pharmacodyn., 1959, 122, 201). The preparations were suspended in a Magnus tube filled with an air-saturated nutrient solution (Tyrode solution) maintained at 37°±1° C. Contractile tension was measured via an isotonic transducer and recorded on a polygraph. Either (±)-ritodrine hydrochloride, (+)-ritodrine hydrochloride or (-)-ritodrine hydrochloride was cumulatively applied so as the concentration in the Magnus tube to be 10^-8 -10-4M.

[4] = test system: isolated rat myometrium; assay: Effect on an isolated rat myometrium preparation (oxytocin-induced contraction); set-up: species or system female virgin Wistar rat; conditions: for concentration dependence of relaxation activity: 10^-7 -10^-4 M; for IC50: read-out: concentration required for suppressing 50% of the contraction of an isolated myometrium caused by oxytocin (IC50); for minimal effective concentration: read-out: concentration at which relaxation activity was exhibited
Protocol: (§2) Effect on an Isolated Rat Myometrium Preparation
(§3) After blowing the cranium of a female virgin Wistar rat, uterus was extracted. The preparation was suspended in a Magnus tube filled with a nutrient solution (Tyrode solution) which was maintained at 36°±1° C. and saturated with a mixed gas of 95% O2 and 5% CO2. Contractile tension was measured via an isotonic transducer and recorded on a polygraph. When the spotaneous movement was stabilized, oxytocin (2×10^-2 U/ml) was administered and either (±)-ritodrine hydrochloride, (+)-ritodrine hydrochloride or (-)-ritodrine hydrochloride (10^-7 -10^-4 M) was applied to the Magnus tube to observe the variation of the contractile tension. Suppresive effect on the oxytocin-contracted uterus was expressed by the intensity of activity of (±)-ritodrine hydrochloride, (+)-ritodrine hydrochloride or (-)-ritodrine hydrochloride based on 100% of the contraction by oxytocin.

[5] = cited from earlier work
[6] = test system: mice; assay: Acute toxicity test in mouse (i.v.); type: in vivo, male ICR mice
Protocol: (§4) Acute Toxicity Test in Mouse
(§5) (±)-Ritodrine hydrochloride, (+)-ritodrine hydrochloride or (-)-ritodrine hydrochloride was administered intravenously at a dose of 40-100 mg/kg to male ICR mice to examine their motality.

[7] = Acute toxicity test in mouse (i.v.); type: in vivo, male ICR mice; conditions: mouse, in vivo, iv
Protocol: as §4, §5

[8] = test system: smooth muscle (myometrium and tracheal muscle); assay: Smooth muscle relaxation activity, myometrium and tracheal muscle taken together; set-up: species or system rat, guinea pig; conditions: from the activities on myometrium and tracheal muscle
Protocol: as §2, §3, §1
After Hartley guinea pigs having body weight of 430-510 g, were anesthesized with ether, tracheae were excised to make chain preparation according to the method of Akcasu (A. Akcasu, Arch. Int. Pharmacodyn., 1959, 122, 201). […] Contractile tension was measured via an isotonic transducer and recorded on a polygraph. […]

[9] = oxytocin 50 mU/kg/min i.v. infusion
[10] = tension, frequency and amplitude of spontaneous movement
[11] = hydrochlorides, cumulative application, Tyrode solution 37°C
[12] = Rattus norvegicus, oxytocin 2×10^-2 U/ml, hydrochlorides applied, Tyrode solution 36°C
[13] = oxytocin-contracted isolated rat myometrium
[14] = acute toxicity, range stated for all three types, read-out: 50% lethal dose (LD50)
[15] = mice, confidence limits given, read-out: LD50 (Confidence limit)

SMILES	vascular permeability, positive at 0.001% ([1]; guinea pig)	vascular permeability, positive at 0.01% ([1]; guinea pig)	vascular permeability, positive at 0.1% ([1]; guinea pig)	ED50 [2, 9] [mg/kg]	minimal effective dose [2, 10] [mg/kg]	concentration dependence of suppressing effect [2]	relaxation response of tracheal muscle [3]	IC50 [3, 11] [nM]	sequence of intensities of relaxation activity [3]	concentration dependence of relaxation activity [4]	IC50 [4, 12] [µM]	minimal effective concentration [4, 13] [µM]	mortality at 50 mg/kg ([6]; i.v., dead/total)	mortality at 60 mg/kg ([6]; i.v., dead/total)	mortality at 70 mg/kg ([6]; i.v., dead/total)	mortality at 80 mg/kg ([6]; i.v., dead/total)	mortality at 90 mg/kg ([6]; i.v., dead/total)	sequence of safeties in developing the same level of relaxation effect on smooth muscle ([6]; mouse, in vivo)	LD50 [7, 14] [mg/kg]	LD50 [7, 15] [mg/kg]	further results
C[C@H](NCCc1ccc(O)cc1)[C@H](O)c1ccc(O)cc1 (relative stereo) [(±)-isomer, (±)-erythro-1-(p-hydroxyphenyl)-2-[2-(p-hydroxyphenyl)ethylamino]-1-propanol]	0/3	0/3	3/3	0.106	≥ 0.05	increased depending on the concentration	relaxation response depending on concentration	136	(-)-isomer>(±)-isomer>>(+)-isomer	increased depending on the concentration	3.53	0.1	0/5	0/5	1/5	2/5	4/5	(-)-type>(±)-type>>(+)-type	50 to 100	83	vascular permeability, positive at 1% ([1]; guinea pig): 3/3; side effects ([5]; background): increase in heart rate; effectiveness in preventing premature birth / suppressing uterine contraction ([5]; known from Japanese Patent Publications): effective in preventing premature birth owing to its excellent activity for suppressing uterine contraction; mortality at 100 mg/kg ([6]; i.v., 100 mg/kg, dead/total): 4/5
C[C@@H](NCCc1ccc(O)cc1)[C@@H](O)c1ccc(O)cc1 [(+)-isomer]	0/3	1/3	3/3	3.61	≥ 1.5	–	relaxation response depending on concentration	5610	(-)-isomer>(±)-isomer>>(+)-isomer	–	54.6	≥ 10	0/5	1/5	2/5	4/5	5/5	(-)-type>(±)-type>>(+)-type	50 to 100	70	relaxation intensity relative to (±)-ritodrine, by IC50 on isolated tracheal muscle [3]: about 1/40; intensity of activity relative to (±)-ritodrine, by IC50 on isolated myometrium [4]: 1/15
C[C@H](NCCc1ccc(O)cc1)[C@H](O)c1ccc(O)cc1.Cl [(-)-isomer, (1R,2S)-2-(4-Hydroxyphenethylamino)-1-(4-hydroxyphenyl)-1-propanol hydrochloride]	–	–	–	–	–	increased depending on the concentration	relaxation response depending on concentration	–	(-)-isomer>(±)-isomer>>(+)-isomer	increased depending on the concentration	–	–	1/5	3/5	3/5	3/5	5/5	–	50 to 100	64	vascular permeability, positive at 0.001% ([1]; intracutaneous, 0.001%, positive = dye area 5 mm or more, positive/total): 0/3; vascular permeability, positive at 0.01% ([1]; intracutaneous, 0.01%, positive = dye area 5 mm or more, positive/total): 1/3; vascular permeability, positive at 0.1% ([1]; intracutaneous, 0.1%, positive = dye area 5 mm or more, positive/total): 2/3; vascular permeability, positive at 1% ([1]; intracutaneous, 1%, positive = dye area 5 mm or more, positive/total): 3/3; ED50 [2]: 0.059 mg/kg; minimal effective dose [2]: ≥ 0.05 mg/kg; smooth muscle relaxation activity relative to the (±)-type [8]: 2-3 times; IC50 [3]: 59.7 nM; relaxation intensity relative to (±)-ritodrine, by IC50 on isolated tracheal muscle [3]: about 2.3 times; minimal effective concentration ([4]; Rattus norvegicus): 0.1 µM; IC50 ([4]; Rattus norvegicus): 1.35 µM; intensity of activity relative to (±)-ritodrine, by IC50 on isolated myometrium [4]: about 2.6 times; mortality at 40 mg/kg ([6]; i.v., 40 mg/kg, dead/total): 0/5; sequence of safeties in developing the same level of relaxation effect on smooth muscle ([6]; ratio of smooth muscle relaxation to lethal toxicity, decreasing sequence): (-)-type>(±)-type>>(+)-type
